Conditions: in NMP

Question: With O=C1OC(=O)[C@H]2[C@@H]1[C@@H]1C=C[C@H]2C1 as the compound, how does the solubility (mole fraction) (278.15 K) read?
Answer: 0.112

Question: And the solubility (mole fraction) (283.15 K)?
Answer: 0.126

Question: And the solubility (mole fraction) (288.15 K)?
Answer: 0.14

Question: What about the solubility (mole fraction) (293.15 K) of the same compound?
Answer: 0.156

Question: What about the solubility (mole fraction) (298.15 K) of the same compound?
Answer: 0.172

Question: And the solubility (mole fraction) (303.15 K)?
Answer: 0.19

Question: What about the solubility (mole fraction) (308.15 K) of the same compound?
Answer: 0.209

Question: And the solubility (mole fraction) (313.15 K)?
Answer: 0.225

Question: What about the solubility (mole fraction) (318.15 K) of the same compound?
Answer: 0.245

Question: And the solubility (mole fraction) (323.15 K)?
Answer: 0.265

Source: BigSolDB 2.1
